Source: patent publication US12559529B2, “NPY2 receptor agonists” (Boehringer Ingelheim International GmbH, priority 2019, dated 2026)
*1 amine or outer side, *2 acyl side, *3 side chain or, on linkers, in order; H or OH if unused. Where a SMILES comes first, the peptide text is derived from it. Side-chain parts run from the residue outwards. The star is where a group is joined. C18 diacid = O=C(O)CCCCCCCCCCCCCCCCC(=O)*; γGlu = O=C(O)[C@H](CCC(=O)[*:2])N[*:1]; Isovaleryl = CC(C)CC(=O)*; AEEA = NCCOCCOCC(=O)O

Biological target: T1, Human Neuropeptide Y2 Receptor (Homo sapiens, UniProt P49146)
T1 construct: purchased CHEMICON HTS066M
T1 sequence (P49146 1-381): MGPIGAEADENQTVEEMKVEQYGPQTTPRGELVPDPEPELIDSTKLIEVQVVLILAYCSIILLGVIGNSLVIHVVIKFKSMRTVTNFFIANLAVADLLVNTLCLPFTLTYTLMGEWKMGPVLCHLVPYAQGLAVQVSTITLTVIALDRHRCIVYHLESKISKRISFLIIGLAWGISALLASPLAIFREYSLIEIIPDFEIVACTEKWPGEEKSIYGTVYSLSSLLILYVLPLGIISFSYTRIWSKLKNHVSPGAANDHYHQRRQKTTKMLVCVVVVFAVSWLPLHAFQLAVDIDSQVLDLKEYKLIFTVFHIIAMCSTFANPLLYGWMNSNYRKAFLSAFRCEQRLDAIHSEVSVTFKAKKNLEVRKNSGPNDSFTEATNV
Assay: Radioligand binding competition assay (RLB)
Details: Table 3; human 125I-PYY (1-36) 0.02 nM, Y2 receptor membranes; read-out: Ki
Experimental: The filtration RLB assay was carried out in 96-well plates in a final volume of 100 μl per well. Freeze-dried test peptides were dissolved in 100% dimethyl sulfoxide (DMSO) to stock solutions of 1 mM and serial dilutions were performed in assay buffer (50 mM HEPES, 5 mM MgCl2, 1 mM CaCl2), pH 7.4) containing 0.2% ovalbumin. […] Next, 80 μL membranes (HTS066M, ChemiSCREEN™ Human Neuropeptide Y2 Receptor Membrane Preparation, CHEMICON) were added to each well to give a final protein concentration of 0.5 μg/well. The plates were sealed and incubated at room temperature for 2 hours in a plate shaker set at 400 rpm. The incubation was stopped by vacuum filtration onto 0.5% poly-ethylene amine (PEI) presoaked GF/C filters using a 96-well FilterMate™ harvester (Perkin Elmer) followed by four washes with 300 μl/well ice-cold wash buffer (50 mM HEPES, 500 mM NaCl, pH7.4). Filter plates were then dried for 60 min at room temperature and the bottom of the plates was sealed with backing tape UniFilter-96. Finally, 50 μl/well scintillation counter cocktail (Microscint20, Packard) was added and the radioactivity was counted in the Packard TopCount NXT scintillation counter. IC50 values (the half maximal inhibitory concentration of the agonist) were calculated by nonlinear regression analysis of sigmoidal dose-response curves.

Ki [nM]	SMILES
14.8	CC(C)CC(=O)N[C@@H](C)C(=O)N1CCC[C@H]1C(=O)N[C@@H](CCC(=O)O)C(=O)N[C@@H](CCCCNC(=O)COCCOCCNC(=O)COCCOCCNC(=O)CC[C@H](NC(=O)CCCCCCCCCCCCCCCCC(=O)O)C(=O)O)C(=O)N1CCC[C@H]1C(=O)N[C@@H](CCC(=O)O)C(=O)N[C@@H](CCC(=O)O)C(=O)N[C@@H](CCC(=O)O)C(=O)N[C@H](C(=O)N[C@@H](CO)C(=O)N1CCC[C@H]1C(=O)N[C@@H](CCC(=O)O)C(=O)N[C@@H](CCC(=O)O)C(=O)N[C@@H](CC(C)C)C(=O)N[C@@H](CCC(N)=O)C(=O)N[C@@H](CCCNC(=N)N)C(=O)N[C@@H](Cc1ccc(O)cc1)C(=O)N[C@@H](Cc1ccc(O)cc1)C(=O)N[C@H](C(=O)N[C@@H](CO)C(=O)N[C@@H](CC(C)C)C(=O)N[C@@H](CCCNC(=N)N)C(=O)N[C@@H](Cc1c[nH]cn1)C(=O)N[C@@H](Cc1ccc(O)cc1)C(=O)N[C@@H](Cc1ccc(O)cc1)C(=O)N[C@@H](CC(N)=O)C(=O)N[C@@H](Cc1c[nH]c2ccccc12)C(=O)N[C@@H](CC(C)C)C(=O)N[C@H](C(=O)N[C@@H](CCCNC(=N)N)C(=O)N[C@@H](CCC(N)=O)C(=O)N[C@@H](CCCNC(=N)N)C(=O)N[C@@H](Cc1ccc(O)cc1)C(N)=O)[C@@H](C)O)C(C)C)C(C)C [Compound 5, N{alpha-4}-(3-methylbutanoyl)-N{epsilon-7}-[2-(2-{2-[2-(2-{2-[(4S)-4-carboxy-4-(17-carboxyheptadecanamido)butanamido]ethoxy}ethoxy)acetamido]ethoxy}ethoxy)acetamido]-[4A,7K,9E,11E,12V,18Q,22V,28Y,30W,31L]hPYY (4-36)] (Isovaleryl-APEK([AEEA-AEEA-γGlu-C18 diacid])PEEEVSPEELQRYYVSLRHYYNWLTRQRY-NH2)
6.52	CC(C)CC(=O)N[C@@H](C)C(=O)N1CCC[C@H]1C(=O)N[C@@H](CCC(=O)O)C(=O)N[C@@H](CCCCNC(=O)COCCOCCNC(=O)COCCOCCNC(=O)CC[C@H](NC(=O)CCCCCCCCCCCCCCCCC(=O)O)C(=O)O)C(=O)N1CCC[C@H]1C(=O)N[C@@H](CCC(=O)O)C(=O)N[C@@H](CCC(=O)O)C(=O)N[C@@H](CCC(=O)O)C(=O)N[C@@H](C)C(=O)N[C@@H](CO)C(=O)N1CCC[C@H]1C(=O)N[C@@H](CCC(=O)O)C(=O)N[C@@H](CCC(=O)O)C(=O)N[C@@H](CC(C)C)C(=O)N[C@@H](CCC(N)=O)C(=O)N[C@@H](CCCNC(=N)N)C(=O)N[C@@H](Cc1ccc(O)cc1)C(=O)N[C@@H](Cc1ccc(O)cc1)C(=O)N[C@H](C(=O)N[C@@H](CO)C(=O)N[C@@H](C)C(=O)N[C@@H](CCCNC(=N)N)C(=O)N[C@@H](Cc1c[nH]cn1)C(=O)N[C@@H](Cc1ccc(O)cc1)C(=O)N[C@@H](Cc1ccc(O)cc1)C(=O)N[C@@H](CC(N)=O)C(=O)N[C@@H](Cc1c[nH]c2ccccc12)C(=O)N[C@@H](CC(C)C)C(=O)N[C@H](C(=O)N[C@@H](CCCNC(=N)N)C(=O)N[C@@H](CCC(N)=O)C(=O)N[C@@H](CCCNC(=N)N)C(=O)N[C@@H](Cc1ccc(O)cc1)C(N)=O)[C@@H](C)O)C(C)C [Compound 6, N{alpha-4}-(3-methylbutanoyl)-N{epsilon-7}-[2-(2-{2-[2-(2-{2-[(4S)-4-carboxy-4-(17-carboxyheptadecanamido)butanamido]ethoxy}ethoxy)acetamido]ethoxy}ethoxy)acetamido]-[4A,7K,9E,11E,18Q,22V,24A,28Y,30W,31L]hPYY (4-36)] (Isovaleryl-APEK([AEEA-AEEA-γGlu-C18 diacid])PEEEASPEELQRYYVSARHYYNWLTRQRY-NH2)

The next lines start with the compound.

SMILES	Ki [nM]
CC(C)CC(=O)N[C@@H](C)C(=O)N1CCC[C@H]1C(=O)N[C@@H](CCC(=O)O)C(=O)N[C@@H](CCCCNC(=O)COCCOCCNC(=O)COCCOCCNC(=O)CC[C@H](NC(=O)CCCCCCCCCCCCCCCCC(=O)O)C(=O)O)C(=O)N1CCC[C@H]1C(=O)N[C@@H](CCC(=O)O)C(=O)N[C@@H](CCC(=O)O)C(=O)N[C@@H](CC(=O)O)C(=O)N[C@@H](C)C(=O)N[C@@H](CCC(N)=O)C(=O)N1CCC[C@H]1C(=O)N[C@@H](CCC(=O)O)C(=O)N[C@@H](CCC(=O)O)C(=O)N[C@@H](CC(C)C)C(=O)N[C@@H](CCC(N)=O)C(=O)N[C@@H](CCC(=O)O)C(=O)N[C@@H](Cc1ccc(O)cc1)C(=O)N[C@@H](Cc1ccc(O)cc1)C(=O)N[C@H](C(=O)N[C@@H](CO)C(=O)N[C@@H](CC(C)C)C(=O)N[C@@H](CCCNC(=N)N)C(=O)N[C@@H](Cc1c[nH]cn1)C(=O)N[C@@H](Cc1ccc(O)cc1)C(=O)N[C@@H](Cc1ccc(O)cc1)C(=O)N[C@@H](CC(N)=O)C(=O)N[C@@H](Cc1c[nH]c2ccccc12)C(=O)N[C@@H](CC(C)C)C(=O)N[C@H](C(=O)N[C@@H](CCCNC(=N)N)C(=O)N[C@@H](CCC(N)=O)C(=O)N[C@@H](CCCNC(=N)N)C(=O)N[C@@H](Cc1ccc(O)cc1)C(N)=O)[C@@H](C)O)C(C)C [Compound 1, N{alpha-4}-(3-methylbutanoyl)-N{epsilon-7}-[2-(2-{2-[2-(2-{2-[(4S)-4-carboxy-4-(17-carboxyheptadecanamido)butanamido]ethoxy}ethoxy)acetamido]ethoxy}ethoxy)acetamido]-[4A,7K,9E,13Q,18Q,19E,22V,28Y,30W,31L]hPYY (4-36)] (Isovaleryl-APEK([AEEA-AEEA-γGlu-C18 diacid])PEEDAQPEELQEYYVSLRHYYNWLTRQRY-NH2)	2.5
CC(C)CC(=O)N[C@@H](C)C(=O)N1CCC[C@H]1C(=O)N[C@@H](CCC(=O)O)C(=O)N[C@@H](CCCCNC(=O)COCCOCCNC(=O)COCCOCCNC(=O)CC[C@H](NC(=O)CCCCCCCCCCCCCCCCC(=O)O)C(=O)O)C(=O)N1CCC[C@H]1C(=O)N[C@@H](CCC(=O)O)C(=O)N[C@@H](CCC(=O)O)C(=O)N[C@@H](CC(=O)O)C(=O)N[C@@H](C)C(=O)N[C@@H](CO)C(=O)N1CCC[C@H]1C(=O)N[C@@H](CCC(=O)O)C(=O)N[C@@H](CCC(=O)O)C(=O)N[C@@H](CC(C)C)C(=O)N[C@@H](CCC(N)=O)C(=O)N[C@@H](CCCNC(=N)N)C(=O)N[C@@H](Cc1ccc(O)cc1)C(=O)N[C@@H](Cc1ccc(O)cc1)C(=O)N[C@H](C(=O)N[C@@H](CO)C(=O)N[C@@H](CC(C)C)C(=O)N[C@@H](CCCNC(=N)N)C(=O)N[C@@H](Cc1c[nH]cn1)C(=O)N[C@@H](Cc1ccc(O)cc1)C(=O)N[C@@H](Cc1ccc(O)cc1)C(=O)N[C@@H](CC(N)=O)C(=O)N[C@@H](Cc1c[nH]c2ccccc12)C(=O)N[C@@H](CC(C)C)C(=O)N[C@@H](CCC(N)=O)C(=O)N[C@@H](CCCNC(=N)N)C(=O)N[C@@H](CCC(N)=O)C(=O)N[C@@H](CCCNC(=N)N)C(=O)N[C@@H](Cc1ccc(O)cc1)C(N)=O)C(C)C [Compound 4, N{alpha-4}-(3-methylbutanoyl)-N{epsilon-7}-[2-(2-{2-[2-(2-{2-[(4S)-4-carboxy-4-(17-carboxyheptadecanamido)butanamido]ethoxy}ethoxy)acetamido]ethoxy}ethoxy)acetamido]-[4A,7K,9E,18Q,22V,28Y,30W,31L,32Q]hPYY (4-36)]	1.43
CC(C)CC(=O)N[C@@H](C)C(=O)N1CCC[C@H]1C(=O)N[C@@H](CCC(=O)O)C(=O)N[C@@H](CCCCNC(=O)COCCOCCNC(=O)COCCOCCNC(=O)CC[C@H](NC(=O)CCCCCCCCCCCCCCCCC(=O)O)C(=O)O)C(=O)N1CCC[C@H]1C(=O)N[C@@H](CCC(=O)O)C(=O)N[C@@H](C)C(=O)N[C@@H](CC(=O)O)C(=O)N[C@@H](C)C(=O)N[C@@H](CO)C(=O)N1CCC[C@H]1C(=O)N[C@@H](CCC(=O)O)C(=O)N[C@@H](CCC(=O)O)C(=O)N[C@H](C(=O)N[C@@H](CCC(N)=O)C(=O)N[C@@H](CCCNC(=N)N)C(=O)N[C@@H](Cc1ccc(O)cc1)C(=O)N[C@@H](Cc1ccc(O)cc1)C(=O)N[C@H](C(=O)N[C@@H](CO)C(=O)N[C@@H](CC(C)C)C(=O)N[C@@H](CCCNC(=N)N)C(=O)N[C@@H](Cc1c[nH]cn1)C(=O)N[C@@H](Cc1ccc(O)cc1)C(=O)N[C@@H](Cc1ccc(O)cc1)C(=O)N[C@@H](CC(N)=O)C(=O)N[C@@H](Cc1c[nH]c2ccccc12)C(=O)N[C@@H](CC(C)C)C(=O)N[C@H](C(=O)N[C@@H](CCCNC(=N)N)C(=O)N[C@@H](CCC(N)=O)C(=O)N[C@@H](CCCNC(=N)N)C(=O)N[C@@H](Cc1ccc(O)cc1)C(N)=O)[C@@H](C)O)C(C)C)[C@@H](C)O [Compound 10, N{alpha-4}-(3-methylbutanoyl)-N{epsilon-7}-[2-(2-{2-[2-(2-{2-[(4S)-4-carboxy-4-(17-carboxyheptadecanamido)butanamido]ethoxy}ethoxy)acetamido]ethoxy}ethoxy)acetamido]-[4A,7K,9E,10A,17T,18Q,22V,28Y,30W,31L]hPYY (4-36)]	1.28
